Columns and labels:
MX1 = assay: Cytotoxicity against human MX1 cells measured after 8 days; type: functional, cell-based; conditions: MX1, 192 h
[1] = Cytotoxicity against human MOR cells measured after 8 days; type: functional, cell-based; conditions: 192 h
Caco-2 = assay: Cytotoxicity against human Caco-2 cells measured after 8 days; type: functional, cell-based; conditions: Caco-2, 192 h
ABC-1 = assay: Cytotoxicity against human ABC-1 cells measured after 8 days; type: functional, cell-based; conditions: ABC-1, 192 h
[2] = biological target: T1, Transcription intermediary factor 1-alpha (Homo sapiens, UniProt O15164); assay: Binding affinity to human partial length TRIM24 (P790 to P977 residues) expressed in bacterial expression system by BROMOscan assay
T1 sequence (O15164 whole entry): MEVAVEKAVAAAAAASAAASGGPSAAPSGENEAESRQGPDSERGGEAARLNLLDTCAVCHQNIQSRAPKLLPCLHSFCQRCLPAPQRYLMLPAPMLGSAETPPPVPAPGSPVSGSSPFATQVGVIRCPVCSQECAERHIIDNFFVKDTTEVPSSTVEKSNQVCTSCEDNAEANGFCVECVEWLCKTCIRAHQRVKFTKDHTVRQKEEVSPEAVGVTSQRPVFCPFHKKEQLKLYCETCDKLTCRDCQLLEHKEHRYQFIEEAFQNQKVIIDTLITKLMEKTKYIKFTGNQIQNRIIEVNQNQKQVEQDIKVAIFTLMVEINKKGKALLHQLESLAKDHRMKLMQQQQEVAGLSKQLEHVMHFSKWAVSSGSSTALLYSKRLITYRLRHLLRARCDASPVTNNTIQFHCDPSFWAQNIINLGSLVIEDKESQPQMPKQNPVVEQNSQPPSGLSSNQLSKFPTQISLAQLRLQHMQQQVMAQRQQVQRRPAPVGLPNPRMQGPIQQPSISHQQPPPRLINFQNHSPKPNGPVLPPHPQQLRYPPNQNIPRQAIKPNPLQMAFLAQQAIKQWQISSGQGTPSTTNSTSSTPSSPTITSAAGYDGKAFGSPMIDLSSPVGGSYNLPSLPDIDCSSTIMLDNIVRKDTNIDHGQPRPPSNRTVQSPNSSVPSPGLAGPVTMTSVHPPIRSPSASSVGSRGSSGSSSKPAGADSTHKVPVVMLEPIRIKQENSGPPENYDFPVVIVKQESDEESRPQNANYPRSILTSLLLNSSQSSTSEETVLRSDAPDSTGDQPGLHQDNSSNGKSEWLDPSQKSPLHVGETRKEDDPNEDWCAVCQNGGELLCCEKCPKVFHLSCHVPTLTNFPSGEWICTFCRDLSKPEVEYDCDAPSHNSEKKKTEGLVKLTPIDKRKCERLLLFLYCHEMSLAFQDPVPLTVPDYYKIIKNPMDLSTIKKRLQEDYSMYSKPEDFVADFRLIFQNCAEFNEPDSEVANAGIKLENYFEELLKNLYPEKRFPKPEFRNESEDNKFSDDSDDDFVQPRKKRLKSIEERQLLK

[3] = biological target: D(1A) dopamine receptor (Homo sapiens) (UniProt P21728); assay: Displacement of [3H]-SCH 23390 from human recombinant dopamine D1 receptor at 10 uM by scintillation counting 60 mins analysis relative to control
[4] = Cytotoxicity against human HCC1171 cells measured after 8 days; type: functional, cell-based; conditions: HCC1171, 192 h
[5] = biological target: T2, Interleukin-1 receptor-associated kinase 4 (Homo sapiens) (UniProt Q9NWZ3); assay: Inhibition of IRAK4 (unknown origin) at 1 uM relative to control
T2 sequence (whole entry): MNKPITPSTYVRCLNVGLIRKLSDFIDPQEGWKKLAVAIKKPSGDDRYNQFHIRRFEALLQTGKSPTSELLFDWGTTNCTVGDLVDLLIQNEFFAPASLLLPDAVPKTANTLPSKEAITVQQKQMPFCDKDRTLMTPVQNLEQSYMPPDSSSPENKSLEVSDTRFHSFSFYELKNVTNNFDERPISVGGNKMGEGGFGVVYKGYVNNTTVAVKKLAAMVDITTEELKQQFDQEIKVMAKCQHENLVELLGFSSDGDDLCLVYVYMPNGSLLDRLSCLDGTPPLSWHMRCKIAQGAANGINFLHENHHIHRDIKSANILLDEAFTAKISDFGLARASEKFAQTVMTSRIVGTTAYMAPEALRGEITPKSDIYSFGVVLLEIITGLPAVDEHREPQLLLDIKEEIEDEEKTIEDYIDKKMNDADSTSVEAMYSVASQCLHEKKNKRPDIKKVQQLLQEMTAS

NCI-H1703 = assay: Cytotoxicity against human NCI-H1703 cells measured after 8 days; type: functional, cell-based; conditions: NCI-H1703, 192 h
RKO = assay: Cytotoxicity against human RKO cells measured after 8 days; type: functional, cell-based; conditions: 192 h
[6] = biological target: T3, Peroxisome proliferator-activated receptor gamma (Homo sapiens) (UniProt P37231); assay: Inhibition of human PPARgamma at 10 uM relative to control
T3 sequence (whole entry): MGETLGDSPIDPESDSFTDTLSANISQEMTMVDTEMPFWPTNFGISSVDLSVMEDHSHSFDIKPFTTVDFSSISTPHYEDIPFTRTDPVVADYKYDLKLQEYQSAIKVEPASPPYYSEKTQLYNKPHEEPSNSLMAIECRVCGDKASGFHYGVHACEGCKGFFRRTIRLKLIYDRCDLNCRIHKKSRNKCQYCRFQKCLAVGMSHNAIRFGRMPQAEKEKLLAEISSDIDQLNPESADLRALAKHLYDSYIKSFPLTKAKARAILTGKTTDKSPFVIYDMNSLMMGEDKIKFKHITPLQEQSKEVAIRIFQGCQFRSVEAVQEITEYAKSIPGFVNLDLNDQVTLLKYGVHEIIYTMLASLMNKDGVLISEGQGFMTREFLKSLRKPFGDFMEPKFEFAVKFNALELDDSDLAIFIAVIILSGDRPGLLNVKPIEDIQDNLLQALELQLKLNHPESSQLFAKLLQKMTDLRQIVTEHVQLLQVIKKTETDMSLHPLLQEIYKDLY

NCI-H520 = assay: Cytotoxicity against human NCI-H520 cells measured after 8 days; type: functional, cell-based; conditions: NCI-H520, 192 h
[7] = biological target: Bromodomain-containing protein 3 (Homo sapiens, UniProt Q15059); assay: Binding affinity to human partial length BRD3 bromodomain 1 (P24 to E144 residues) expressed in bacterial expression system by BROMOscan assay
SW1573 = assay: Cytotoxicity against human SW1573 cells measured after 8 days; type: functional, cell-based; conditions: SW1573, 192 h
[8] = biological target: Insulin receptor (Homo sapiens) (UniProt P06213); assay: Inhibition of InsR (unknown origin) at 1 uM relative to control
[9] = biological target: Bromodomain-containing protein 8 (Homo sapiens, UniProt Q9H0E9); assay: Binding affinity to BRD8 bromodomain 2 (unknown origin) by BROMOscan assay
NCI-H2347 = assay: Cytotoxicity against human NCI-H2347 cells measured after 8 days; type: functional, cell-based; conditions: NCI-H2347, 192 h
[10] = Cytotoxicity against human HNT-34 cells measured after 8 days; type: functional, cell-based; conditions: HNT-34, 192 h
NCI-H1651 = assay: Cytotoxicity against human NCI-H1651 cells measured after 8 days; type: functional, cell-based; conditions: NCI-H1651, 192 h

Bromodomain-containing protein 8, sequence (Q9H0E9 whole entry): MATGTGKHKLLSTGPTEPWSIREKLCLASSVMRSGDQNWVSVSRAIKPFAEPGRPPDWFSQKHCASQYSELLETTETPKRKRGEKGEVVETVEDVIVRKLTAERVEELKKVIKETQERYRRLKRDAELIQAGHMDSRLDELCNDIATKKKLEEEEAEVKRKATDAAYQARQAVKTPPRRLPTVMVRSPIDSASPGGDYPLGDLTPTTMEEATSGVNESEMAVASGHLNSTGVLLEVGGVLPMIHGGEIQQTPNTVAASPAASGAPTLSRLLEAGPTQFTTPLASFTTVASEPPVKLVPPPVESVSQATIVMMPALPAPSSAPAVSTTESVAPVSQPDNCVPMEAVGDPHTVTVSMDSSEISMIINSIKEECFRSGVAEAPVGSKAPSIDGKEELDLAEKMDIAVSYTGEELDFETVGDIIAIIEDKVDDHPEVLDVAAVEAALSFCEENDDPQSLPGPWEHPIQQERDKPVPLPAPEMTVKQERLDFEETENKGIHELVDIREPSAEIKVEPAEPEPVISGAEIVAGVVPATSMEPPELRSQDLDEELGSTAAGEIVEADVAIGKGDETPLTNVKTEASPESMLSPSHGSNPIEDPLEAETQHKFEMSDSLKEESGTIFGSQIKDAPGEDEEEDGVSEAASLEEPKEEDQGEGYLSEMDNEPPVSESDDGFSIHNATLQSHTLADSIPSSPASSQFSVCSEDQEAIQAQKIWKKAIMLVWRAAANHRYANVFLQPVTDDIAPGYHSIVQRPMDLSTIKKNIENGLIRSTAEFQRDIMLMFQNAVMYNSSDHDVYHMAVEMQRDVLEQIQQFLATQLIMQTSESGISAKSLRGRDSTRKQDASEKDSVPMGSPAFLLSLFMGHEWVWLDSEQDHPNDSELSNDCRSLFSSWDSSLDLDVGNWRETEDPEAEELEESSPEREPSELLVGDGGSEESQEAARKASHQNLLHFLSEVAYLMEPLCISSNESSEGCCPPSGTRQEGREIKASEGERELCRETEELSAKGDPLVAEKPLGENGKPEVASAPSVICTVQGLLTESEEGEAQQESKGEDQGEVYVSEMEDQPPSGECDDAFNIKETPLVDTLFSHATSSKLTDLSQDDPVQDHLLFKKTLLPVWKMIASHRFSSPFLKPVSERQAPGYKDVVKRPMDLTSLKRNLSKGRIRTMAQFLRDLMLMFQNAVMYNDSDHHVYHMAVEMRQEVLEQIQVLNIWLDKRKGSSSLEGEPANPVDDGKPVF
D(1A) dopamine receptor (Homo sapiens), sequence (P21728 whole entry): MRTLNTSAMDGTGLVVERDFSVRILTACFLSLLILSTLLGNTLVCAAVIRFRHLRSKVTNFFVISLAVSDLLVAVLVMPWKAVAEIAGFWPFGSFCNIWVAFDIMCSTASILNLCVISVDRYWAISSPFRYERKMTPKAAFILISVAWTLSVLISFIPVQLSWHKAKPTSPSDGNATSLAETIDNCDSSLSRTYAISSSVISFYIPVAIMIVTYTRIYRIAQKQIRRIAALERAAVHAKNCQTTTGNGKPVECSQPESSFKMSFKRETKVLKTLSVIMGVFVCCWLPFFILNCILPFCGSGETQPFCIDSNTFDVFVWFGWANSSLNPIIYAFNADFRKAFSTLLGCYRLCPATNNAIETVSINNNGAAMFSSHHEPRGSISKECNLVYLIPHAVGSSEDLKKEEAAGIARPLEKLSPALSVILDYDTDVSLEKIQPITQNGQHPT
Insulin receptor (Homo sapiens), sequence (P06213 28-758 limits assumed): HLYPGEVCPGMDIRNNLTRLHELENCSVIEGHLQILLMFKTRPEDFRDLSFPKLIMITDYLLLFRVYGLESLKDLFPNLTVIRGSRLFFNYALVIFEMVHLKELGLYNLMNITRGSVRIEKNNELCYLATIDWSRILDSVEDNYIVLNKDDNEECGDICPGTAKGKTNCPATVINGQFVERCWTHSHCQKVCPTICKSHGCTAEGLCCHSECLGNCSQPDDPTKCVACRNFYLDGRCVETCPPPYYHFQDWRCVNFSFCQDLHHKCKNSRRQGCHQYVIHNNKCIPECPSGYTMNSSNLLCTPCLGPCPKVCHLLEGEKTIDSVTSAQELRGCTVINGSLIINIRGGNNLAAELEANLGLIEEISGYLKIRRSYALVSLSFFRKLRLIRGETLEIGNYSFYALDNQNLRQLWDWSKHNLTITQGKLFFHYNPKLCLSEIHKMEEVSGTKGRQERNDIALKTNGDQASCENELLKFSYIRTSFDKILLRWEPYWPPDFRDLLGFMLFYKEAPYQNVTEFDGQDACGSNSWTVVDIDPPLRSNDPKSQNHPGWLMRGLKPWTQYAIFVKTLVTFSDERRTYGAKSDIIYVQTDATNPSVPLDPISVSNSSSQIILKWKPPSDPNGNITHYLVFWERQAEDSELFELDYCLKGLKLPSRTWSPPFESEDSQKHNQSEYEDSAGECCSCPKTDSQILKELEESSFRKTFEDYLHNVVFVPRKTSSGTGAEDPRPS
Insulin receptor (Homo sapiens), sequence (P06213 763-1382 limits assumed): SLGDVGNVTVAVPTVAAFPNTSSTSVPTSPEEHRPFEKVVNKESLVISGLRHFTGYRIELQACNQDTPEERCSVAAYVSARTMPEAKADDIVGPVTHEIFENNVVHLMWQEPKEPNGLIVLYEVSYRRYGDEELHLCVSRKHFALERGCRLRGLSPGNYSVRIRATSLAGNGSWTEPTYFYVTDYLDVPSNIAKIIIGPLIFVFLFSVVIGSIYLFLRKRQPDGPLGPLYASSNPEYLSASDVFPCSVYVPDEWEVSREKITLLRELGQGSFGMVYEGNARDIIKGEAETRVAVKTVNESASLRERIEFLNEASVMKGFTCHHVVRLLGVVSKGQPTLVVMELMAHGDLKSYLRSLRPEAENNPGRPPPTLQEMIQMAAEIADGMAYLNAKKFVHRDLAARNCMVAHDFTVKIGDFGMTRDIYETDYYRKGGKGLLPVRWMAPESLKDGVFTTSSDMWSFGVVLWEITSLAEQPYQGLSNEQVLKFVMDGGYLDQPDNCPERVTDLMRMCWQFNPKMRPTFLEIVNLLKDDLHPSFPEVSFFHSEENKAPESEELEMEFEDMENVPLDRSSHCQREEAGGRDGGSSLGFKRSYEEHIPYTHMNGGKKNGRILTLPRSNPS
Bromodomain-containing protein 3, sequence (Q15059 whole entry, the tested form may be a part): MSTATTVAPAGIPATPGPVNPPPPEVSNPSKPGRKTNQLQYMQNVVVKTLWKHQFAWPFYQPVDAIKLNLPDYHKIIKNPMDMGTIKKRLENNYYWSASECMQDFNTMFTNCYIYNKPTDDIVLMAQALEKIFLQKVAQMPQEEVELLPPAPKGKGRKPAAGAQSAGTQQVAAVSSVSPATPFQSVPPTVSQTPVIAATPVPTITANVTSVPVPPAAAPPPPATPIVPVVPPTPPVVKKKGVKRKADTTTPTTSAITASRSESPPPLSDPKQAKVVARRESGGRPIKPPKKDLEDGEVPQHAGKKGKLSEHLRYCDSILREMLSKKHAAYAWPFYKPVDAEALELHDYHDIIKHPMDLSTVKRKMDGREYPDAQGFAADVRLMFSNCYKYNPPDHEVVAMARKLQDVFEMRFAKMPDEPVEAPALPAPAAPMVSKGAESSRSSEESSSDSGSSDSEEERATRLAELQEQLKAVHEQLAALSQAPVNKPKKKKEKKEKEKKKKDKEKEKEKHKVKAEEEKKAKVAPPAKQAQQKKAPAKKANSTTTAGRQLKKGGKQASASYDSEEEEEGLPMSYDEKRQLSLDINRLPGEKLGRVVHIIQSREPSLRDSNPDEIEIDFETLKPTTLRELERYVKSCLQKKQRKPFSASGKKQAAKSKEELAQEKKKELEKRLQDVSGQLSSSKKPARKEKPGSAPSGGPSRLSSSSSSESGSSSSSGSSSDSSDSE

| Compound | IC50 (MX1) [µM] | IC50 [1] [µM] | IC50 (Caco-2) [µM] | IC50 (ABC-1) [µM] | Kd [2] [µM] | Activity [3] [%] | IC50 [4] [µM] | inhibition [5] [%] | IC50 (NCI-H1703) [µM] | IC50 (RKO) [µM] | inhibition [6] [%] | IC50 (NCI-H520) [µM] | Kd [7] [µM] | IC50 (SW1573) [µM] | inhibition [8] [%] | Kd [9] [µM] | IC50 (NCI-H2347) [µM] | IC50 [10] [µM] | IC50 (NCI-H1651) [µM] |
| --- | --- | --- | --- | --- | --- | --- | --- | --- | --- | --- | --- | --- | --- | --- | --- | --- | --- | --- | --- |
| C/C=C/Cn1cc(-c2ccc(C(=O)N3CCOCC3)cc2)c2cc[nH]c2c1=O | 20 | 20 | 20 | 20 | 26 | 6 | 20 | -4.9 | 20 | 20 | 49 | 20 | 6.3 | 20 | 1.1 | > 10 | 20 | 8.35 | 20 |
| C/C=C/Cn1cc(-c2cc(OC)c(C(C)(C)O)cc2OC)c2cc(C)[nH]c2c1=O |  |  |  |  | > 10 |  |  |  |  |  |  |  | 9.2 |  |  | > 10 |  |  |  |
| C/C=C/Cn1cc(-c2cc(OC)c(C(=O)N3CCOCC3)cc2OC)c2cc(C)[nH]c2c1=O | 2 | 2 | 2 | 2 | > 10 | 4 | 2 | -3.5 | 2 | 2 | 9 | 2 | > 10 | 2 | 3 | > 10 | 2 | 0.54 | 2 |
| C/C=C/Cn1cc(-c2ccc(C(C)(C)O)cc2OC)c2cc[nH]c2c1=O | 20 | 20 | 20 | 20 | > 10 | 0 | 20 | 6 | 20 | 20 | 18 | 20 | 3.2 | 20 | 4.5 | > 10 | 20 | 8.14 | 20 |

From ChEMBL document CHEMBL5260810, “Inhibition of bromodomain-containing protein 9 for the prevention of epigenetically-defined drug resistance” (Bioorg Med Chem Lett, 2017)
